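Tested at 5 concentrations; 48 h exposure; 96-well plates; endpoints linearly interpolated, else capped at highest concentration. Here, GI50 denotes the concentration required for 50% inhibition of growth.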 Active and inactive are the calls of the source. No stated cut-off is given here; in the data, active = GI50 up to about 1.1 µM and inactive = higher.
Key:
Experiment in all cases: NCI-60 cell line screen, 48 h
[1] = tested on: DLD-1
[2] = tested on: DMS-114
[3] = tested on: DMS-273
[4] = tested on: HOP-18
[5] = tested on: KM-20L2
[6] = tested on: LXFL 529
[7] = tested on: M19-MEL
[8] = tested on: RXF 631
[9] = tested on: XF498

Row | SMILES | GI50 [1] | GI50 [2] | GI50 [3] | GI50 [4] | GI50 [5] | GI50 [6] | GI50 [7] | GI50 [8] | GI50 [9]
1 | C/C(=N\N=C(\N)S)c1ccc(Oc2ccccc2)cc1 | 3.44 µM (inactive) | 3.03 µM (inactive) | 5.96 µM (inactive) | 14.1 µM (inactive) | 10.7 µM (inactive) | 3.96 µM (inactive) | 15.1 µM (inactive) | 13.8 µM (inactive) | 
2 | O=c1ncc(F)cn1C1OC(CO)C(O)C1O (stereo unspecified) | > 35.8 µM (inactive) | > 21.2 µM (inactive) | 16.7 µM (inactive) | > 31.5 µM (inactive) | > 32.9 µM (inactive) |  | > 24.6 µM (inactive) | 41.6 µM (inactive) | > 100 µM (inactive)
3 | [O-][S+]1c2ccccc2N=C(c2ccc3ccccc3c2)CC1c1ccccc1 (stereo unspecified) | 19 µM (inactive) |  | 38.6 µM (inactive) |  | 18.7 µM (inactive) | 16.1 µM (inactive) | 17.9 µM (inactive) |  | 23.9 µM (inactive)
4 | O=C1/C(=C/c2ccccc2)CN(C(=O)/C=C/c2ccccc2)C/C1=C\c1ccccc1 | 4.14 µM (inactive) |  | 4.74 µM (inactive) | 33.7 µM (inactive) | 12.8 µM (inactive) | 8.05 µM (inactive) | 5.22 µM (inactive) | 27.1 µM (inactive) | 18.6 µM (inactive)
5 | Cc1ccc2nc(NC(=O)C(=O)CC(=O)c3cccc4ccccc34)sc2c1 | 49.7 µM (inactive) |  | 40.4 µM (inactive) | 24.7 µM (inactive) | 46.3 µM (inactive) | 45.6 µM (inactive) | 35.5 µM (inactive) |  | 45.9 µM (inactive)
6 | O=C(C#Cc1ccccc1)Nc1ccccc1CC(c1c[nH]c2ccccc12)c1c[nH]c2ccccc12 | 17 µM (inactive) |  | 11.3 µM (inactive) |  |  | 6.35 µM (inactive) | 16.4 µM (inactive) | 21.3 µM (inactive) | 29.4 µM (inactive)
7 | O=C1c2cccc3cc([N+](=O)[O-])cc(c23)C(=O)N1CCCN1CCN(CCCN2C(=O)c3cccc4cc([N+](=O)[O-])cc(c34)C2=O)CC1 | 0.0453 µM (active) |  |  | 1.77 µM (inactive) | 0.45 µM (active) | 0.0349 µM (active) | 0.0931 µM (active) | 0.0344 µM (active) | 0.0966 µM (active)
8 | O=C(O)CNCc1c2ccccc2[n+]([O-])c2ccccc12 | 39.4 µM (inactive) | 25.9 µM (inactive) | 46.7 µM (inactive) | 52.7 µM (inactive) | 42.4 µM (inactive) | 27.7 µM (inactive) | 85.7 µM (inactive) | 83.4 µM (inactive) | 
9 | COc1ccc(OC)c(NC(=O)C2=C(C)NC(C)=C(C(=O)Nc3cc(OC)ccc3OC)C2c2ccco2)c1 | > 100 µM (inactive) | > 100 µM (inactive) | 95.9 µM (inactive) |  | > 100 µM (inactive) | > 100 µM (inactive) | > 100 µM (inactive) |  | > 100 µM (inactive)
10 | CC12OC(=O)C(C#N)C1(C)C1C(=O)CCCC12 (stereo unspecified) | > 100 µM (inactive) | > 100 µM (inactive) | > 100 µM (inactive) | > 100 µM (inactive) | > 100 µM (inactive) | > 100 µM (inactive) | > 100 µM (inactive) |  | > 100 µM (inactive)
11 | COC(=O)C(=O)C(C#N)c1cccc(Cl)c1 (stereo unspecified) | > 100 µM (inactive) |  | > 100 µM (inactive) | > 100 µM (inactive) | > 100 µM (inactive) | > 100 µM (inactive) | > 100 µM (inactive) |  | > 100 µM (inactive)
12 | C/C=C(\C)C(=O)N1c2ccccc2CC1c1c(C)[nH]c2ccccc12 (stereo unspecified) | 8.18 µM (inactive) |  | 39.1 µM (inactive) |  | 47.4 µM (inactive) | 72.9 µM (inactive) | 61.7 µM (inactive) | > 100 µM (inactive) | 
13 | C[C@]12CC[C@H](O)CC1=CC[C@@H]1C2CC[C@]2(C)C(=O)N(N)C(=O)CC12 (stereo partly specified) | > 100 µM (inactive) |  | > 100 µM (inactive) | > 100 µM (inactive) | > 100 µM (inactive) | > 100 µM (inactive) | > 100 µM (inactive) | > 100 µM (inactive) | > 100 µM (inactive)
14 | CCOc1ccc(O)cc1[P+](c1ccccc1)(c1ccccc1)c1ccccc1 | 4.14 µM (inactive) |  | 2.16 µM (inactive) | 2.91 µM (inactive) | 2.46 µM (inactive) | 1.37 µM (inactive) | 3.05 µM (inactive) |  | 1.16 µM (inactive)
15 | CN1CCN(C)C12C=CC=CC21CC1 | > 100 µM (inactive) | > 100 µM (inactive) | > 100 µM (inactive) | > 100 µM (inactive) | > 100 µM (inactive) |  | > 100 µM (inactive) | > 100 µM (inactive) | > 100 µM (inactive)
16 | N/C(=C\c1ccc(OCc2ccccc2)c(OCc2ccccc2)c1[N+](=O)[O-])C(=O)O | > 100 µM (inactive) |  | > 100 µM (inactive) | > 100 µM (inactive) | > 100 µM (inactive) | > 100 µM (inactive) | > 100 µM (inactive) |  | 
17 | COc1cc2c3c(c1OCc1ccccc1)NCCC3NCC2 (stereo unspecified) | > 100 µM (inactive) | > 100 µM (inactive) | > 100 µM (inactive) |  | > 100 µM (inactive) | > 100 µM (inactive) | > 100 µM (inactive) | > 100 µM (inactive) | > 100 µM (inactive)
18 | CCN(CC)c1ccc(C2N3CCCCC3[C@@H]3c4[nH]c5ccccc5c4CCN23)cc1 (stereo partly specified) | 26 µM (inactive) | 14 µM (inactive) | 32.9 µM (inactive) | > 100 µM (inactive) | 29.3 µM (inactive) | 21.3 µM (inactive) | 23.7 µM (inactive) |  | 17.1 µM (inactive)
19 | CCCCN(CCCC)CC(C(=O)Nc1ccc([N+](=O)[O-])cc1[N+](=O)[O-])/C(C)=N\NC(=S)NN (stereo unspecified) | > 100 µM (inactive) | > 100 µM (inactive) | > 100 µM (inactive) |  | > 100 µM (inactive) | > 100 µM (inactive) | > 100 µM (inactive) |  | > 100 µM (inactive)
20 | CN(C)c1nc(N(C)C)nc(N(C)CN(C)c2nc(N(C)C)nc(N(C)C)n2)n1 | > 100 µM (inactive) | > 100 µM (inactive) | > 100 µM (inactive) | > 100 µM (inactive) | > 100 µM (inactive) | 77.6 µM (inactive) | > 100 µM (inactive) |  | 
21 | C[N+](C)(C)CC(=O)N/N=C(\C(=O)NC1=C(Cl)C(=O)c2ccccc2C1=O)C(C#N)c1nc(-c2ccc([N+](=O)[O-])cc2)cs1 (stereo unspecified) | 11.3 µM (inactive) | 3.26 µM (inactive) | 9.02 µM (inactive) | 6.4 µM (inactive) | 14 µM (inactive) | 7.91 µM (inactive) | 0.889 µM (active) |  | 9.46 µM (inactive)
22 | O[C@]12CCCC[C@H]1CCC2 |  | > 100 µM (inactive) | > 100 µM (inactive) |  |  | > 100 µM (inactive) | > 100 µM (inactive) | > 100 µM (inactive) | > 100 µM (inactive)
23 | Cc1ccc(O)c(/N=N/c2ccc(S(=O)(=O)O)cc2)n1 | > 100 µM (inactive) | > 100 µM (inactive) | > 100 µM (inactive) | > 100 µM (inactive) | > 100 µM (inactive) | > 100 µM (inactive) | > 100 µM (inactive) |  | 
24 | COc1cc(C2c3cc4c(cc3[C@@H](NCCN3CCCCC3)C3COC(=O)[C@H]23)OCO4)cc(OC)c1O (stereo partly specified) | 1.58 µM (inactive) |  | 0.0726 µM (active) | 0.303 µM (active) | 1.17 µM (inactive) | 1.8 µM (inactive) | 0.805 µM (active) |  | 
25 | COC(=O)CC(C(C(=O)OC)C(=O)OC)N1C(=O)OC(c2ccccc2)C1c1ccccc1 (stereo unspecified) | 68.5 µM (inactive) | 45.6 µM (inactive) | > 100 µM (inactive) | > 100 µM (inactive) | > 100 µM (inactive) | > 100 µM (inactive) | > 100 µM (inactive) |  | 
26 | CC1=C(N(C)C)C(=O)c2nc3n(c2C1=O)CCC3OC(N)=O (stereo unspecified) | 16.2 µM (inactive) | 16.1 µM (inactive) | 15.8 µM (inactive) | 17.7 µM (inactive) | 20.2 µM (inactive) |  | 1.7 µM (inactive) |  | 23.9 µM (inactive)
27 | Cc1c2ccncc2c(C)c2c1[nH]c1ccc(Oc3ccccc3)cc12 | 2.37 µM (inactive) | 2.3 µM (inactive) | 1.76 µM (inactive) | 6.04 µM (inactive) | 1.87 µM (inactive) | 2.04 µM (inactive) | 2.43 µM (inactive) | 2.57 µM (inactive) | 1.45 µM (inactive)
28 | Cc1c(O)c(=O)ccn1CCO | > 100 µM (inactive) | > 100 µM (inactive) | > 10 µM (inactive) | > 100 µM (inactive) | > 100 µM (inactive) | > 100 µM (inactive) | > 100 µM (inactive) |  | > 100 µM (inactive)
29 | Cc1c(O)c(=O)ccn1CCN | > 100 µM (inactive) | > 100 µM (inactive) | > 100 µM (inactive) | > 100 µM (inactive) | > 100 µM (inactive) | > 100 µM (inactive) | > 100 µM (inactive) | > 100 µM (inactive) | 
